Patent publication US10653648B2, “Histone acetyltransferase activators and compositions and uses thereof” (THE TRUSTEES OF COLUMBIA UNIVERSITY IN THE CITY OF NEW YORK, priority 2016, dated 2020)

What was measured:
[1] = cited from earlier work
[2] = test system: Pfeiffer (EP300 wt/CREBBP mut); assay: Synergy with romidepsin, Excess Over Bliss; type: cell-based; settings: in combination with romidepsin, 72 hrs
Experimental: (§1) FIGS. 22A-E show the synergy effect of JF1, a HAT activator compound, with romidepsin (a pan-class HDAC inhibitor) in B-cell lymphoma cell lines. Synergy between JF1 and romidepsin was evaluated in Pfeiffer (EP300 wt/CREBBP mut) and SUDHL-10 cells (EP300 mut/CREBBP Δ). Excess Over Bliss was calculated. Drug synergy will be confirmed by Excess over bliss (EOB). Bliss is calculated by the following formula: X=(A+B)−(A*B); where X designates the combined response for the two single compounds with effects (inhibition) A and B. The difference between Bliss and observed growth inhibition (Y) induced by combinations of drugs A and B at the same dose is the termed EOB (EOB=Y−X) 18,19. An EOB>10 connotes synergy. […] Synergy effect of JF1 and romidepsin was also assessed in a panel of B-cell lymphoma cell lines (N=5) (FIGS. 22C-22E). Cells were treated by different concentrations of JF1 and romidepsin for 48 hrs (FIG. 22C) and 72 hrs (FIG. 22D) and an Excess Over Bliss was calculated for both time points for all five cell lines. SUDHL-6 and Pfeiffer (Bold) were treated 2, 2.5, […] JF1, whereas the rest of cell lines were treated with 2, 3, 4 μM JF1. Synergy is defined by an Excess Over Bliss of 10. […]
(§2) Cells were exposed to increasing concentrations of YF2 and romidepsin in various combinations for 72 hrs and Excess Over Bliss (EOB) was calculated.

[3] = test system: seven B-cell lymphoma cell lines; assay: Synergy with romidepsin, Excess Over Bliss, cell line panel; type: cell-based; settings: in combination with romidepsin, 72 hrs
Experimental: as §1, §2

[4] = test system: SUDHL-6 (EP300 mut/CREBBP mut); assay: Histone acetylation quantified by mass spectrometry; type: cell-based; settings: combination with romidepsin (1.5 nM); YF2 6 uM, JF1 3 uM; 48 hours
Experimental: (§3) FIGS. 25A-B compare the synergy effects that HAT-activators JF1 and YF2 in combination with romidepsin have on histone acetylation in B-cell lymphoma cell lines, as quantified by mass spectrometry. In these experiments cells were seeded at 5,000 cells/mL and exposed to YF2 (6 uM), JF1 (3 uM) and romidepsin (1.5 nM) alone and in combinations for 48 hours. Following treatment, SUDHL-6 (EP300 mut/CREBBP mut, FIG. 25A) and SUDHL-10 cells (EP300 mut/CREBBP mut, FIG. 25B) were harvested for histone extraction.
For each, a synergy effect, calculated as a fold change of treatment vs. control, was observed showing an increase in histone acetylation for JF1/romidepsin and YF2/romidepsin compared to individual treatment of the cells with either JF1, YF2, or romidepsin alone (FIG. 25A).

[5] = test system: SUDHL-10 cells (EP300 mut/CREBBP mut); assay: as above; type: cell-based; settings: combination with romidepsin (1.5 nM), YF2 6 uM, 48 hours
Experimental: as §3
The synergy trend for the SUDCL-6 cell line is evident for SUDCL-10 as well (FIG. 25B). In the same manner as described above, SUDHL-10 cells were treated separately with romidepsin, JF1, YF2, JF1/romidepsin, and YF2/romidepsin and the fold change in histone acetylation was measured.

SUDHL-10 = assay: Histone H3 acetylation by Western Blot; type: cell-based; settings: in combination with romidepsin, 48 hours
Experimental: (§4) FIG. 26 provides a Western Blot showing the effect of JF1 and YF2 alone and in combination with romidepsin on histone acetylation in HAT-mutated cells lines. Cells were exposed to YF2 and romidepsin alone and in combinations for 48 hours in SUDHL-6 and SUDHL-10 (EP300 mut/CREBBP mut). The synergistic effect of YF2 on histone acetylation was evaluated by Western Blot with histone H3 serving as loading control.

SUDHL-6 = assay: Histone H3 acetylation by Western Blot; type: cell-based; settings: in combination with romidepsin, 48 hours
Experimental: as §4

Structure (SMILES): CCOc1ccccc1C(=O)Nc1ccc(Cl)c(C(F)(F)F)c1 [CTB]
- solubility [1]: insoluble

Structure (SMILES): CCCCCCCCCCCCCCCc1cccc(OCC)c1C(=O)Nc1ccc(Cl)c(C(F)(F)F)c1 [CTPB]
- solubility [1]: insoluble

Structure (SMILES): CCOc1cccc(OCCN(C)C)c1C(=O)Nc1ccc(Cl)c(C(F)(F)F)c1 [YF2]
- strong synergy response (EOB of at least 20) [2]: fail to show a strong response
- cell lines with strong synergy (EOB of at least 20) [3]: 6 out of 7
- cell lines with strong synergy (EOB of at least 20), percentage [3]: 86%
- H3:K9AC increase in acetylation vs. YF2 or JF1 alone [4]: 8 fold
- H3:K9AC increase in acetylation vs. control [4]: 10 fold
- H3:K9AC increase in acetylation vs. romidepsin [4]: ~2 fold
- global acetylation of histones compared with single agent effects [4]: induced the global acetylation of histones
- global acetylation of histones compared with single agent effects ([5]; JF1 3 uM): induced the global acetylation of histones
- H3:K9AC maximum synergy effect on acetylation [5]: about 1.6 fold
- global acetylation of Histone H3 compared with single agent effects (SUDHL-10): induced the global acetylation of Histone H3
- global acetylation of Histone H3 compared with single agent effects (SUDHL-6): induced the global acetylation of Histone H3
